Measured values from PMC13181761, “New Analogs of the Compstatin Family of Clinical Complement Inhibitors with Low Picomolar Target Affinity” (Journal of Medicinal Chemistry, 2026).
Several values for one entry are separate records, joined by “and”; a condition that tells them apart may be missing. Identical values can stand only once. Like-named read-outs stand apart in the source and are kept apart here. One block for each compound: values may come before it. Where a SMILES comes first, the peptide text is derived from it. Bridges are numbered along the chain shown (N, C = ends). [ ]: non-standard residue; d: D form. Trp(1-Me) = Cn1cc(C[C@H](N)C(=O)O)c2ccccc21; Nva(3-Et) = CCC(CC)[C@H](N)C(=O)O; NMeI = CC[C@H](C)[C@H](NC)C(=O)O; Sar = CNCC(=O)O

Assays:
[1] = system: classical pathway complement activation; assay: Classical pathway (CP) complement activation ELISA in normal human serum; type: biochemical
Procedure: The inhibitory activity of selected peptides in preventing pathway-specific complement activation was evaluated using ELISA as previously described. All assays used normal human serum (NHS), pooled from five unrelated, anonymized healthy donors, obtained with informed consent according to the local ethics committee, and following the guidelines of the Declaration of Helsinki (Blutspendezentrum Basel, Switzerland). To assess classical pathway activity, flat-bottom MaxiSorp 96-well plates (Thermo Fisher) were coated overnight at room temperature with 33 μg/mL IgM (Sigma) in a 0.1 M sodium carbonate buffer. Plates were washed 5 times with phosphate-buffered saline (Dubleccòs, Bioconcept) supplemented with 0.05% Tween-20 (PBS-T). Serial dilutions of peptides were prepared in 1% (v/v) NHS using HBBT++ assay buffer (10 mM HEPES, 150 mM NaCl, pH 7.4, 0.5% BSA, 0.15 mM CaCl2, 0.5 mM MgCl2, 0.1% Tween-20), with samples diluted in 1% (v/v) NHS. Negative controls included each inhibitor in assay buffer alone, assay buffer only, and 1% (v/v) NHS with 10 mM EDTA. HBBT++ with 1% (v/v) pooled NHS served as the 100%-control. After incubating for 1 h at 37 °C and shaking at 700 rpm, plates were washed 5 times with PBS-T. Next, 100 μL of biotinylated monoclonal mouse antihuman TCC antibody (1:1000, Hycult, clone: aE11) to detect terminal complement complexes was added to each well, followed by 1 h incubation at room temperature while shaking. After another 5 washes with PBS-T, 100 μL of HRP-conjugated NeutrAvidin (1:10,000, Invitrogen) was added to each well and incubated for 20 min at room temperature while shaking. Plates were washed 5 more times with PBS-T before adding 100 μL of 1-Step Turbo TMB-ELISA solution (Thermo Scientific) to each well. The reaction was allowed to develop until a light blue color appeared, and then stopped with 100 μL of 2 M sulfuric acid. Colorimetric detection was performed at 450 nm by using a plate reader (Synergy HT, Biotek). All assays were conducted in triplicate and normalized against 100% (no inhibitor, 1% (v/v) serum in buffer) and 0% (1% (v/v) serum in EDTA buffer) controls. In the cases of Cp60 and Cp40, 5% (v/v) NHS was used instead of 1% (v/v) NHS in some assays. Inhibition curves were fitted using nonlinear regression to a normalized variable slope model in Prism (v9-10, GraphPad).

[2] = system: alternative pathway complement activation; assay: Alternative pathway (AP) complement activation ELISA in normal human serum; type: biochemical; details: diluted human serum (figure legends 1%; method 10% NHS)
Procedure: The inhibitory activity of selected peptides in preventing pathway-specific complement activation was evaluated using ELISA as previously described. All assays used normal human serum (NHS), pooled from five unrelated, anonymized healthy donors, obtained with informed consent according to the local ethics committee, and following the guidelines of the Declaration of Helsinki (Blutspendezentrum Basel, Switzerland).
The activity of selected peptides in preventing the activation of the alternative pathway was evaluated by analogy to the classical pathway ELISA described above, with some adjustments. Flat-bottom PolySorb 96-well plates (Thermo Fisher) were coated overnight at room temperature with 40 μg/mL lipopolysaccharide from Salmonella enteritidis (Sigma-Aldrich) in 0.1 M sodium carbonate buffer and washed 5 times with PBS-T. Serial dilutions of peptides were prepared in 10% (v/v) pooled NHS using HBBT + assay buffer (10 mM HEPES, 150 mM NaCl, pH 7.4, 0.5% BSA, 5 mM EGTA, 5 mM MgCl2, and 0.1% Tween-20), with samples diluted in 10% (v/v) NHS. Negative controls included each inhibitor in assay buffer alone, assay buffer only, and 10% (v/v) serum with 10 mM EDTA. HBBT+ with 10% (v/v) pooled NHS served as the 100%-control. Subsequent steps were performed as described above.

human C3b = molecular target: T1, human C3b (Homo sapiens, UniProt P01024); assay: SPR kinetic binding to immobilized human C3b
T1 construct: purchased Complement Technology, Tyler, TX, USA
Procedure: Experiments were conducted at 25 °C in HBST buffer (10 mM HEPES, 150 mM NaCl, and 0.05% Tween-20, pH 7.4; XanTec bioanalytics). Human C3b (Complement Technology, Tyler, TX, USA) was immobilized via amine-reactive coupling. […] Individual peptide samples were injected for 120 s, followed by a 180 s dissociation phase. […] Signals from the reference cell and buffer blank injections were subtracted within each dilution series to correct for buffer effects and injection artifacts. Data were fitted to a Langmuir 1:1 binding model to calculate association (k a) and dissociation (k d) rate constants, and the equilibration constant K D is calculated based on the equation: K D = k d/k a. In the case of Cp40 derivatives and Cp60, a single-cycle approach was used for kinetic analysis by injecting 5 increasing concentrations of each compound (0.5-40 nM) consecutively without a regeneration period in between injections. Individual injections within a cycle were 120 s long with a 5 min dissociation phase between injections. […] Analog Cp40 was included in each experimental series as a reference and internal control. Signals from the reference cell and buffer blank injections were subtracted to correct for buffer effects and injection artifacts. Kinetic data were processed in BiaEvaluation (Cytiva) using single-cycle evaluation by global fitting each data set to a Langmuir 1:1 binding model. The reported kinetic parameters (Tables and ) indicate the mean values and standard deviations of three independent experiments. SPR sensorgrams are provided in the Supporting Information.

[3] = cynomolgus monkey, in vivo, 2 mg/kg
[4] = cynomolgus monkey, in vivo, sc, 2 mg/kg
[5] = SPR, 1:1 Langmuir fit, average of 3 independent experiments, SD in brackets
[6] = SPR screening at 2 and 1 μM, series up to 16 μM, read-out: affinity hC3b (class symbol N.B./W.B.)

T1 sequence (P01024 23-667 limits assumed): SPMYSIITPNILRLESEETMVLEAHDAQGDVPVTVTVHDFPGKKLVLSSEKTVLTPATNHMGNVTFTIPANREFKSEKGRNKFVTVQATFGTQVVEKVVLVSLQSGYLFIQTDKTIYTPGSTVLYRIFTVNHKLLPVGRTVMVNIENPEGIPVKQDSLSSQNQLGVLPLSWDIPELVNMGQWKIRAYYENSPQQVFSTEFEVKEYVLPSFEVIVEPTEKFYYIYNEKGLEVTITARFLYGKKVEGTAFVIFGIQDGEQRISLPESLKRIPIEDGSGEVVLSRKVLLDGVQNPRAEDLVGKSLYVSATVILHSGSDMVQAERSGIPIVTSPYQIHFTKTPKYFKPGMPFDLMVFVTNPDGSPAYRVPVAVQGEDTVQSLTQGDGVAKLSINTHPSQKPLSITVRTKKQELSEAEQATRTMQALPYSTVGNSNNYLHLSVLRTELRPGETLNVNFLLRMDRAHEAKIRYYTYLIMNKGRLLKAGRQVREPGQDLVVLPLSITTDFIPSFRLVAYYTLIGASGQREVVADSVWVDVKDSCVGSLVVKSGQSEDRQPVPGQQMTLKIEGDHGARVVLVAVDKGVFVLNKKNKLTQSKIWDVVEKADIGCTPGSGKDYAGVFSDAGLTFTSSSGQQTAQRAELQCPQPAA
T1 sequence (P01024 749-1663 partner limits assumed): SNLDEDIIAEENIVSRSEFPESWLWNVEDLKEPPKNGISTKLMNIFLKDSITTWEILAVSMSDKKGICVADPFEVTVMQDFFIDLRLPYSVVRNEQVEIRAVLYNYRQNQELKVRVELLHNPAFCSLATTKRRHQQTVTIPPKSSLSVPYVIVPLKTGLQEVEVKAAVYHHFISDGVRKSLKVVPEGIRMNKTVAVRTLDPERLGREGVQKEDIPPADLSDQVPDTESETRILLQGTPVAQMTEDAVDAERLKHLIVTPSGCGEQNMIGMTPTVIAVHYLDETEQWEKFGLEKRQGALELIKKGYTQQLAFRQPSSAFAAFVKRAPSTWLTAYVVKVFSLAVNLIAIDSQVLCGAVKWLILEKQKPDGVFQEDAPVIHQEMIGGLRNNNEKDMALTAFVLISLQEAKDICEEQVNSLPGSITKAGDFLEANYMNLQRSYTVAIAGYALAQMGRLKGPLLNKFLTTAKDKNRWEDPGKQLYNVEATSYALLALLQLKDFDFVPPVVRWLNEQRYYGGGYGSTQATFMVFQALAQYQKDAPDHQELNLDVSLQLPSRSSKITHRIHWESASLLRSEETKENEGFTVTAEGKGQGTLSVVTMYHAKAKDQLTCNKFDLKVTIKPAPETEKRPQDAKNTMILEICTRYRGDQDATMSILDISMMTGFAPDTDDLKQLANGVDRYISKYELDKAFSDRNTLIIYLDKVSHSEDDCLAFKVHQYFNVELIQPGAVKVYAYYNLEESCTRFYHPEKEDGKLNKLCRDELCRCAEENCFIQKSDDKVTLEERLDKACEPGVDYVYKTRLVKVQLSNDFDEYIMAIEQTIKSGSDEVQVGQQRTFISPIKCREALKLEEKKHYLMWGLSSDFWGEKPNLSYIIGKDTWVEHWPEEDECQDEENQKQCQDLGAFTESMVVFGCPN

SMILES: CC[C@H](C)[C@H](NC(C)=O)C(=O)N[C@H]1CSSC[C@@H](C(=O)N[C@H](C(N)=O)[C@@H](C)O)NC(=O)[C@H](CCCN=C(N)N)NC(=O)[C@H](Cc2c[nH]cn2)NC(=O)[C@H](C)NC(=O)CNC(=O)[C@H](Cc2c[nH]c3ccccc23)NC(=O)[C@H](CC(=O)O)NC(=O)[C@H](CCC(N)=O)NC(=O)[C@H](Cc2c[nH]c3ccccc23)NC(=O)[C@H](C(C)C)NC1=O [Cp01, reference compound]
- IC50 ([1]; CP ELISA, 1% diluted normal human serum): 20000 nM
- IC50 [2]: 1400 nM

SMILES: CC[C@H](C)[C@H](NC(=O)[C@H](N)Cc1ccc(O)cc1)C(=O)N[C@H]1CSSC[C@@H](C(=O)N(C)[C@H](C(=O)N[C@@H](CCCCN)C(=O)N[C@@H](CCCCN)C(N)=O)[C@@H](C)CC)NC(=O)[C@H](CCCNC(=N)N)NC(=O)[C@H](Cc2c[nH]cn2)NC(=O)[C@H](C)NC(=O)CN(C)C(=O)[C@H](Cc2c[nH]c3ccccc23)NC(=O)[C@H](CC(=O)O)NC(=O)[C@H](CCC(N)=O)NC(=O)[C@H](Cc2cn(C)c3ccccc23)NC(=O)[C@H]([C@@H](C)CC)NC1=O [Cp60-KK] (H-[dY]ICI[Trp(1-Me)]QDW[Sar]AHRC[NMeI]KK-NH2; disulfide 3-13)
- AUC(0-t) ([3]; AUC0–120h, range over both animals): 230 to 400 µM·h
- Tmax ([3]; sc): 2 h
- AUC(0-t) ([3]; sc, AUC0-120h): 228 µM·h
- AUC(0-inf) ([3]; sc, AUC0-∞): 479 µM·h
- Cmax ([3]; sc, Cmax): 7.52 µM
- half-life ([3]; sc, t 1/2, terminal elimination phase, range over both animals): 30 to 40 h
- half-life ([3]; sc, t½): 30.8 h
- AUC0-120h [4]: 401 µM·h
- AUC0-∞ [4]: 250 µM·h

SMILES: CC[C@H](C)[C@H](NC(C)=O)C(=O)N[C@H]1CSSC[C@@H](C(=O)N[C@H](C(N)=O)[C@@H](C)O)NC(=O)[C@H](CCCNC(=N)N)NC(=O)[C@H](Cc2c[nH]cn2)NC(=O)[C@H](C)NC(=O)CNC(=O)[C@H](Cc2c[nH]c3ccccc23)NC(=O)[C@H](CC(=O)O)NC(=O)[C@H](CCC(N)=O)NC(=O)[C@H](Cc2c[nH]c3ccccc23)NC(=O)[C@H](C)NC1=O [Cp01-Val3Ala]
- Kd (human C3b; [6]): > 2000 nM

SMILES: CC[C@H](C)[C@H](NC(C)=O)C(=O)N[C@H]1CSSC[C@@H](C(=O)N[C@H](C(N)=O)[C@@H](C)O)NC(=O)[C@H](CCCNC(=N)N)NC(=O)[C@H](Cc2c[nH]cn2)NC(=O)[C@H](C)NC(=O)CNC(=O)[C@H](Cc2c[nH]c3ccccc23)NC(=O)[C@H](CC(=O)O)NC(=O)[C@H](CCC(N)=O)NC(=O)[C@H](Cc2c[nH]c3ccccc23)NC(=O)[C@H](Cc2c[nH]c3ccccc23)NC1=O [Cp01-Val3Trp]
- Kd (human C3b; [6]): > 2000 nM

More lines, main results first:

- fold enhancement in binding affinity of Cp60 over Cp40 (human C3b; K D ratio vs Cp40): > 8 fold and 10 fold
- k a, affinity hC3b (human C3b; [5]): 17.6(1.4) 10^5 M^–1 s^–1
- k d, affinity hC3b (human C3b; [5]): 0.01 10^–2 s^–1
- k d, affinity hC3b (human C3b; SPR, 1:1 Langmuir fit, average of 3 independent experiments, SD in brackets, listed as Cp40 Ile): 0.01(0.0) 10^–2 s^–1
- target residence (τ) (human C3b; SPR, C3b): exceeding 100 min
- koff (human C3b; SPR, read-out: dissociation rate k d): 0.0001 s⁻¹
SMILES: CC[C@H](C)[C@H](NC(=O)[C@H](N)Cc1ccc(O)cc1)C(=O)N[C@H]1CSSC[C@@H](C(=O)N(C)[C@H](C(N)=O)[C@@H](C)CC)NC(=O)[C@H](CCCNC(=N)N)NC(=O)[C@H](Cc2c[nH]cn2)NC(=O)[C@H](C)NC(=O)CN(C)C(=O)[C@H](Cc2c[nH]c3ccccc23)NC(=O)[C@H](CC(=O)O)NC(=O)[C@H](CCC(N)=O)NC(=O)[C@H](Cc2cn(C)c3ccccc23)NC(=O)[C@H]([C@@H](C)CC)NC1=O [Cp60] (H-[dY]ICI[Trp(1-Me)]QDW[Sar]AHRC[NMeI]-NH2; disulfide 3-13)
- CP inhibition compared with Cp40 ([1]; CP ELISA, 1% human serum): did not show improved CP inhibition
- IC50 ([1]; CP ELISA, 5% human serum): 97 nM
- fold enhancement in inhibitory potency of Cp60 over Cp40 ([1]; IC50 ratio vs Cp40): < 2 fold

- Kd (human C3b; [6]): > 2000 nM
SMILES: CC[C@H](C)[C@H](NC(C)=O)C(=O)N[C@H]1CSSC[C@@H](C(=O)N[C@H](C(N)=O)[C@@H](C)O)NC(=O)[C@H](CCCNC(=N)N)NC(=O)[C@H](Cc2c[nH]cn2)NC(=O)[C@H](C)NC(=O)CNC(=O)[C@H](Cc2c[nH]c3ccccc23)NC(=O)[C@H](CC(=O)O)NC(=O)[C@H](CCC(N)=O)NC(=O)[C@H](Cc2c[nH]c3ccccc23)NC(=O)[C@H](Cc2ccccc2)NC1=O [Cp01-Val3Phe]

- k a, affinity hC3b (human C3b; [5]): 5.4(1.5) 10^5 M^–1 s^–1
- k d, affinity hC3b (human C3b; [5]): 11(1) 10^–2 s^–1
- Kd (human C3b; SPR, 1:1 Langmuir fit, average of 3 independent experiments, SD in brackets, read-out: K D, affinity hC3b): 219 nM
SMILES: CC[C@H](C)[C@H](NC(C)=O)C(=O)N[C@H]1CSSC[C@@H](C(=O)N[C@H](C(N)=O)[C@@H](C)O)NC(=O)[C@H](CCCNC(=N)N)NC(=O)[C@H](Cc2c[nH]cn2)NC(=O)[C@H](C)NC(=O)CNC(=O)[C@H](Cc2c[nH]c3ccccc23)NC(=O)[C@H](CC(N)=O)NC(=O)[C@H](CCC(N)=O)NC(=O)[C@H](Cc2c[nH]c3ccccc23)NC(=O)[C@H](C(C)C)NC1=O [Cp01-Asp6Asn] (Ac-ICVWQNWGAHRCT-NH2; disulfide 2-12)

- k a, affinity hC3b (human C3b; [5]): 4.3(0.7) 10^5 M^–1 s^–1
- k d, affinity hC3b (human C3b; [5]): 0.6(0.1) 10^–2 s^–1
SMILES: CCC(CC)[C@@H]1NC(=O)[C@@H](NC(=O)[C@@H](NC(=O)[C@H](N)Cc2ccc(O)cc2)[C@@H](C)CC)CSSC[C@@H](C(=O)N(C)[C@H](C(N)=O)[C@@H](C)CC)NC(=O)[C@H](CCCNC(=N)N)NC(=O)[C@H](Cc2c[nH]cn2)NC(=O)[C@H](C)NC(=O)CN(C)C(=O)[C@H](Cc2c[nH]c3ccccc23)NC(=O)[C@H](CC(=O)O)NC(=O)[C@H](CCC(N)=O)NC(=O)[C@H](Cc2cn(C)c3ccccc23)NC1=O [Cp40-Val3Dea] (H-[dY]IC[Nva(3-Et)][Trp(1-Me)]QDW[Sar]AHRC[NMeI]-NH2; disulfide 3-13)
